Laboratory results published in ChEMBL document CHEMBL5724709, “EUbOPEN Chemogenomics Library - IncuCyte” (2024).
Square brackets hold non-standard residues; d marks the D form. Peptide text beside a SMILES is read from it. * marks the point of attachment. Benzoyl(4-tBu) = CC(C)(C)c1ccc(C(=O)*)cc1; Lys(Et2) = CCN(CC)CCCC[C@H](N)C(=O)O; Cbz = O=C(OCc1ccccc1)*; CH2F = FC*

Tests used:
Assay type in all cases: toxicity, cell-based
[1] = system: HEK-293T; experiment: Incucyte cell viability with HEK293T; details: human, 24 h, 10 µM, compound concentration 10 uM
[2] = system: Fibroblast; experiment: Incucyte cell viability with human fibroblast; details: 24 h, 10 µM, compound concentration 10 uM
[3] = system: U2OS; experiment: Incucyte cell viability with U2OS; details: human, 24 h, 10 µM, compound concentration 10 uM
Also: unitless GR value; below 1 slowed growth and below 0 cell loss.

SMILES | Growth Rate ([1]; replicate number 1) | Growth Rate ([1]; replicate number 2) | Growth Rate ([2]; replicate number 1) | Growth Rate ([3]; replicate number 1) | Growth Rate ([3]; replicate number 2) | Growth Rate ([2]; replicate number 2)
N#C[C@@H]1CCCN1C(=O)[C@@H]1CCCN1C(=O)CCCc1ccccc1 | 0.6 | 0.93 | 1 | 1 | 0.94 | 
CC(=O)N[C@@H](Cc1ccc(O)cc1)C(=O)N[C@H](C(=O)N[C@@H](C)C(=O)N[C@@H](CC(=O)O)C(=O)CCl)C(C)C | 0.82 | 0.89 | 0.42 | 1 |  | 1
C[C@H](Nc1cc(Cl)nc2c1cnn2[C@@H]1O[C@H](COP(=O)(O)CP(=O)(O)O)[C@@H](O)[C@H]1O)c1ccccc1F | 0.88 | 1 | 0.88 | 1 |  | 1
CC(C)C[C@@H](C=O)NC(=O)[C@@H](NS(=O)(=O)c1ccc(F)cc1)C(C)C | 0.64 | 0.92 | 0.96 | 0.76 | 1 | 1
CCN(CC)CCCC[C@H](NC(=O)[C@H](CC(C)C)NC(=O)[C@H](C)NC(=O)[C@H](Cc1ccccc1)NC(=O)c1ccc(C(C)(C)C)cc1)C(=O)N[C@@H](CO)C(=O)OC ({Benzoyl(4-tBu)}-FAL[Lys(Et2)]S-OMe) | 0.81 | 0.89 | 0.92 | 1 |  | 0.71
COCCOCCn1nc2c(c1C)-c1c(Cl)ccc3c1c(C)c(C(=O)O)n3CCCOc1cc(cc3c(F)c(Cl)ccc13)CCc1cc(nn1C)CSC2 | 0.27 | 0.51 | -0.35 | 0.15 | 0.75 | -0.82
C[C@@H]1CN(c2nccc(Nc3ccc4c(c3)n(CCC(C)(C)O)c(=O)n4C)n2)C[C@H](C)C1(F)F | 0.03 | 0.19 | 0.74 | 0.72 | 0.76 | 1
CC(=O)N1CCN([C@H]2CCC[C@@H](NC(=O)c3cc4c(F)ccc(C)c4[nH]3)C2)CC1 [EZM-0414] | 0.77 | 0.94 | 0.85 | 0.87 | 0.93 | 0.56
COc1cc2c(Nc3ccc(Br)cc3F)ncnc2cc1OCC1CCN(C)CC1 [VANDETANIB] | -0.15 | 0.26 | 0.22 | -0.56 | 0.01 | -0.22
COc1cc(O)c2c(c1)/C=C\C[C@H](O)[C@H](O)C(=O)/C=C\C[C@H](C)OC2=O | -0.3 | -0.25 | -0.67 | -0.54 | -0.35 | -0.85
CCC[C@@H]1CNCc2c1[nH]c(=O)c(C#N)c2N1CCC2(CC1)CC2.Cl | 0.66 | 0.97 | 0.62 | 0.72 | 0.8 | 0.92
CC(C)c1cnc(CSc2cnc(NC(=O)C3CCNCC3)s2)o1 | -0.28 | -0.09 | -0.05 | -0.6 | -0.31 | -0.46
Cc1ncsc1-c1ccc([C@H](C)NC(=O)[C@@H]2C[C@@H](O)CN2C(=O)[C@@H](NC(=O)CNC(=O)c2ccc(F)c(-c3ccc(N4C[C@@H](C)N(C)[C@@H](C)C4)c(NC(=O)c4c[nH]c(=O)cc4C(F)(F)F)c3)c2)C(C)(C)C)cc1 | 0.6 | 0.78 | -0.11 | 1 | 0.89 | 0.89
C[C@H](NC(=O)[C@H](Cc1ccccc1)NC(=O)OCc1ccccc1)C(=O)CF | 0.53 | 0.77 | 1 | 0.43 | 0.93 | 
CC(C)(O)c1ccc(N2Cc3c(ccnc3-c3ccc(F)cc3OCC(F)(F)F)C2=O)cc1 | 0.87 | 1 | 0.68 | 0.05 | 1 | 0.44
CCCC1O[C@@H]2C[C@H]3[C@@H]4CCC5=CC(=O)C=C[C@]5(C)[C@H]4[C@@H](O)C[C@]3(C)[C@]2(C(=O)CO)O1 (stereo not given in full) [BUDESONIDE] | 0.73 | 0.82 | 0.7 | 1 | 0.58 | 1
COc1ccc(/C=C/C(=O)NO)c(-c2ccc(-c3ccccc3)cc2)c1 | 0.41 | 0.49 | -0.1 | -0.07 | 1 | -0.52
Cc1cc(-c2ccccc2)cc(C(=O)NNS(=O)(=O)c2ccccc2)c1F | 0.49 | 0.81 | 1 | 0.87 | 0.89 | 0.27
C[C@@H]1CN(c2ncc(Cl)c(Nc3ccc4c(c3)n(CCC(C)(C)O)c(=O)n4C)n2)C[C@H](C)C1(F)F | 0.18 | 0.21 | 0.91 | 0.72 | 0.69 | -0.13

SMILES | Growth Rate ([1]; replicate number 1) | Growth Rate ([1]; replicate number 2) | Growth Rate ([2]; replicate number 1) | Growth Rate ([3]; replicate number 1) | Growth Rate ([3]; replicate number 2) | Growth Rate ([2]; replicate number 2)
COC(=O)CC[C@H](NC(=O)[C@H](Cc1c[nH]c2ccccc12)NC(=O)OCc1ccccc1)C(=O)N[C@@H](Cc1cnc[nH]1)C(=O)N[C@@H](CC(=O)OC)C(=O)CF (Cbz-WE(OMe)HD(OMe)-CH2F) | 0.94 | 0.95 | 0.4 | 0.82 | 0.99 | 1
Cc1nn(CC(F)(F)F)cc1Nc1ncc(Br)c(NCc2ccc(S(N)(=O)=O)cc2)n1 | 0.53 | 1 | 1 | 1 | 0.83 | 
COC[C@H](NC(=O)c1ccn(S(C)(=O)=O)c1)C(=O)Nc1nc(-c2cccc(-c3ccn(C)n3)c2)cs1 | 1 |  | 0.89 | 0.77 |  | 1
COc1ccccc1C(=O)Nc1cc2c(cc1N1CCCCC1)n(C)c(=O)n2C | 0.58 | 0.99 | 1 | 1 |  | 
CC(C)c1cc(C(=O)N2Cc3ccc(CN4CCN(C)CC4)cc3C2)c(O)cc1O [ONALESPIB] | -0.26 | -0.15 | 0.29 | -0.07 | 0.05 | 0.25
CN1CCN(c2nc(-c3ccc(C(=O)NC4(C(=O)NCC#N)CCCCC4)cc3)cs2)CC1 | 0.86 | 0.8 | 0.74 | 1 |  | 1
NC(=O)c1ccc(Oc2ccc(C(N)=O)cc2)cc1 | 1 |  | 1 | 1 |  | 
CC1=NN(c2ccc(C(=O)O)cc2)C(=O)/C1=C/c1ccc(-c2cc(C)c(C)cc2[N+](=O)[O-])o1 | 0.84 | 1 | 1 | 0.18 | 1 | 
Nc1c[nH]c(=O)c2cc(-c3ccccc3)sc12 | 0.88 | 0.73 | -0.61 | -0.48 | 0.33 | -0.86
NC(=O)c1cccc(NC(=O)CCC(=O)NCCc2cn(CCNS(=O)(=O)c3cccc(C(=O)O)c3)nn2)c1 | 0.69 | 0.77 | 0.46 | 0.49 | 1 | 1
C[C@]12CC[C@@H]3c4ccc(O)cc4C[C@@H](CCCCCCCCC[S+]([O-])CCCC(F)(F)C(F)(F)F)[C@H]3[C@@H]1CC[C@@H]2O (stereo not given in full) [FULVESTRANT] | 0.5 | 0.53 | 1 | 0.86 | 0.65 | 
COc1cc2c(NC3CCN(C4CCCCC4)CC3)nc(N3CCCN(C(C)C)CC3)nc2cc1OCCCN1CCCCC1 | -0.52 | -0.39 | 0.42 | -0.09 | 0.29 | 0.22
O=C(NCC(=O)N1CCCCC1)Nc1ccc2nnsc2c1 | 0.75 | 0.97 | 0.36 | 0.93 |  | -0.42
O=C([O-])CCNc1cc(N2CCc3ccccc3CC2)nc(-c2cccnc2)n1.[Na+] | 0.83 | 0.92 | 1 | 0.55 | 1 | 
COC[C@@H]1CCCN1S(=O)(=O)c1ccc2c(c1)C(=O)C(=O)N2 | 0.88 | 1 | 0.45 | 1 |  | 0.8
CC#C[C@]1(O)CC[C@H]2[C@@H]3CCC4=CC(=O)CCC4=C3[C@@H](c3ccc(N(C)C)cc3)C[C@@]21C [MIFEPRISTONE] | 0.49 | 1 | 1 | 0.84 | 0.66 | 
Cc1cc(C)c(CNC(=O)c2cc(-c3ccc(N4CCN(C)CC4)nc3)cc3c2c(C)cn3C(C)C)c(=O)[nH]1 | 0.42 | 0.79 | 1 | 0.61 | 0.86 | 
O=C(NC[C@H](O)CN1CCc2ccccc2C1)c1cc(NC2COC2)ncn1 | 0.54 | 0.94 | 1 | 1 |  | 0.5
